Experimental findings from patent US8410152B2 (Max-Planck-Gesellschaft zur Forderung der Wissenschaften e. …, priority 2006, dated 2013) are described below.

The subject of one data set is N2a/K18ΔK280 cells. The data set is described as follows: Tau aggregation and inhibition assay in cells (ThS staining). Type of data set: cell-based. The settings on record: for inhibition at 10 µM: 120 h, read-out: Inhibition in cells; for Inhibition in cells (result in words: cytotoxicity): compound 10 μM. As for the experimental part: Selection of an N2a, Tet-On, G418-resistant cell line: N2a cells were cotransfected with both the pUHD172-1 plasmid (encoding the rtTA, obtained from H. Bujard, Heidelberg) and pEU-1 plasmid (encoding G418 resistance, a derivative of pRc/CMV, Invitrogen) (ratio 20:1; 1 μg/well of 6-well plates) using the DOTAP transfection reagent (Roche, Basel, CH). The cells were cultured in Eagle's Minimum Essential Medium (MEM) supplemented with 10% defined fetal bovine serum and subjected to G418 (600 μg/ml) and selection. The cells were fed with fresh media every 4 days for 3-4 weeks when single colonies appeared. Clones were tested for the induction level by transient transfection of pUHG 16-3 plasmid and the induction of β-galactosidase was measured.
Generation of inducible Tet-On cell lines: The DNA fragments encoding the appropriate tau constructs (K18WT, K18ΔK280, K18/ΔK280/PP) were inserted into the bidirectional vector pBI-5 between ClaI and SalI restriction sites (pBI-5 is an unpublished derivative of pBI-2, Baron et al., 1995). The pBI-5/K18-derived plasmids with pX343 (plasmid encoding the hygromycin resistance) were used for cotransfection of N2a/Tet-On, G418-resistant cells with the aid of DOTAP (20:1 plasmid ratio; 1 μg/well of 6-well plates). The cells were seeded at 4×10^5 cells per well. On the following day cells were transferred to 100-mm dishes and selected with 100 μg/ml of hygromycin and 600 μg/ml of G418. Clonal cell lines were screened for the inducible expression of K18 derivatives by measuring luciferase activity with the luciferase assay and immunofluorescence for tau protein with the polyclonal pan-tau antibody K9JA.
Induction of K18-derivatives in Tet-On N2a cells: The inducible N2a/K18-derivatives cells were cultured in MEM medium supplemented with 10% fetal calf serum, 2 mM glutamine and 0.1% nonessential amino acids. The expression of K18 constructs was induced by adding 1 μg doxycyclin (Dox) per 1 ml medium. The induction was continued for 7-11 days, the medium was changed 3 times (always complemented with doxycyclin). For tau solubility assays the cells were collected by pelleting during centrifugation at 1000×g for 5 min. The levels and solubility of tau K18/ΔK280 were determined following Greenberg and Davies (1990). The cells were homogenized (DIAX900, Heidolph, Schwabach, Germany) in 10 vol (w/v) of buffer consisting of 10 mM Tris-HCl (pH 7.4), 0.8 M NaCl, 1 mM EGTA, and 10% sucrose. The homogenate was spun for 20 min at 20000×g, and the supernatant was retained. The pellet was re-homogenized in 5 vol of homogenization buffer and re-centrifuged. Both supernatants were combined, brought to 1% N-laurylsarkosinate (w/v) and incubated for 1 hr at room temperature while shaking, followed by centrifugation at 100 000×g for 1 hr. The sarkosyl-insoluble pellets were resuspended in 50 mM Tris-HCl (pH 7.4), 0.5 ml per 1 g of starting material. The supernatant and sarkosyl-insoluble pellet samples were analyzed by Western blotting. The amount of material loaded for supernatant and sarkosyl-insoluble pellet represented about 0.5% and 15% of the total material present in the supernatant and pellet respectively (the ratio between supernatant and sarkosyl insoluble pellet was always 1:30). For quantification of tau levels in each fraction, the Western blots were probed with pan-tau antibody K9JA and analyzed by densitometry (LAS 3000 and AIDA software, Raytest, Straubenhardt, Germany).
Quantitation of tau aggregation in cells by Thioflavin S (ThS) staining: Tet-On inducible undifferentiated N2a cells were treated with 1 μg/ml doxycyclin for 5, 7 or 9 days in a culture dish. After that the cells were trypsinized and transferred to coverslips and incubated overnight. The cells on the coverslips were fixed with 4% paraformaldehyde in PBS for 15 min, then permeabilized with 80% MeOH for 6 min at −20° C., and incubated with 0.1% Thioflavin S for 5 min and washed three times in ethanol (50%). […]

A further data set deals with tau construct K19 (Homo sapiens, UniProt P10636). Put plainly: Thioflavine S (ThS) assay for aggregation of tau. The format is biochemical. As for the experimental part: Thioflavine S (ThS) Assay for aggregation of tau: 10 μM of the tau construct K19 were incubated with compounds in a concentration range from 1 nM up to 200 μM in the presence of 2.5 μM heparin in 50 mM NH4Ac buffer over night at 37° C. After addition of 20 μM ThS the signal was measured at 521 nm (emission) at an excitation wavelength of 440 nm. The results of this assay are presented in the IC50 column and DC50 column of Table 1 below.
tau construct K19, sequence (P10636 with tags, fused parts or gaps isoform P10636-2 limits assumed): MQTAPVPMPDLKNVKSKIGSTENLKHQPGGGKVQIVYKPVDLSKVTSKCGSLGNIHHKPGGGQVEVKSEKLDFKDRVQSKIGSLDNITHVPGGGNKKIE

For another data set, the system named is uninduced N2A cells. Type of data set: cell-based. Conditions: cell death as percent of LDH released into medium vs total LDH, compound 10 μM. As to the method:
Neurotoxicity assay: Neurotoxicity was assessed using an LDH (lactate dehydrogenase) assay kit (Roche, Mannheim, Germany) according to the manufacturer's specifications. In the viability assay the aggregation inhibitor compound was added at a final concentration of 10 μM to uninduced N2A cells. The activity of LDH was measured spectrophotometrically at 492 nm. Cell death was calculated as percent of LDH released into medium, compared to total LDH obtained after total cell lysis.
(In general: LDH in the medium is a marker of cell lysis.)

Setting [1] is: 10 μM tau construct K19, 2.5 μM heparin, ThS fluorescence.
Setting [2] is: N2a/K18ΔK280 cells, compound 10 μM with doxycyclin, 5 days, ThS-positive cells scored.
[3] abbreviates: 10 μM tau construct K19, 2.5 μM heparin, ThS fluorescence, read-out: DC50.
Where [4] appears, read: 10 μM tau construct K19, 2.5 μM heparin, over night at 37° C., ThS fluorescence, read-out: ID50 (the source's name).

Read-outs that look alike come from different tables or passages of the source.

Usually inhibition stands for the change of the read-out against control, counted positive when it falls.

As for `CC(C)COc1ccc(-c2csc(NNC(=O)c3cc4ccccc4[nH]3)n2)cc1` [Comp. 56, N′-[4-(4-isobutyloxyphenyl)-1,3-thiazol-2-yl]-1H-indole-2-carbohydrazide], in the data set on N2a/K18ΔK280 cells, the inhibition at 10 µM was found to be 50.8%. This compound also had an IC50 against tau construct K19 of 111 µM. The compound also had a DC50 at tau construct K19 (setting [1]) above 200 µM. The LDH in the data set with uninduced N2A cells is given as −0.6%.

Take `O=C(NNc1nc(-c2ccc3ccccc3c2)cs1)c1ccc(C(F)(F)F)cc1` [Comp. 50, N′-[4-(2-naphthyl)-1,3-thiazol-2-yl]-4-(trifluoromethyl)benzohydrazide]: the inhibition at 10 µM in the data set on N2a/K18ΔK280 cells (setting [2]) was 52.6%. Besides, the LDH in the data set on uninduced N2A cells is given as −7.6%.

Turning to `O=C(NNc1nc(-c2ccc(Cl)cc2)cs1)c1cc2ccccc2[nH]1` [Comp. 55, N′-[4-(4-chlorophenyl)-1,3-thiazol-2-yl]-1H-indole-2-carbohydrazide], the inhibition at 10 µM in the data set on N2a/K18ΔK280 cells came to 54%. At tau construct K19, this compound returned an IC50 of 88.9 µM. For the same compound, at tau construct K19 (setting [1]), the DC50 is 105 µM. Besides, the LDH with uninduced N2A cells is listed as −1.1%.

On to `COc1ccc(C(=O)NNc2nc(C3C4CC5CC(C4)CC3C5)cs2)cc1` (stereo not drawn) [Comp. 65, N′-[4-(2-adamantyl)-1,3-thiazol-2-yl]-4-mathoxybenzohydrazide], for which the inhibition at 10 µM in the data set with N2a/K18ΔK280 cells (setting [2]) is 42.1%. The DC50 at tau construct K19 (setting [3]) was above 200 µM. On tau construct K19 (setting [4]), the IC50 was determined as 112 µM. Also, the LDH in the data set on uninduced N2A cells is listed as 39.4%.

Turning to `O=C(NNc1nc2c(s1)Cc1ccccc1-2)c1ccc(C(F)(F)F)cc1` [Comp. 66, N′-8H-indeno[1,2-d][1,3]thiazol-2-yl-4-(trifluoromethyl)benzohydrazide], in the data set with N2a/K18ΔK280 cells (setting [2]), the inhibition at 10 µM amounted to 53.9%. The DC50 on tau construct K19 (setting [3]) came out at 2.7 µM. Further, the IC50 on tau construct K19 (setting [4]) came out at 4.1 µM. Also, the LDH with uninduced N2A cells is −4.6%.

Regarding `O=C(NNc1nc2c(s1)Cc1ccccc1-2)c1cc2ccccc2[nH]1` [Comp. 52, N′-8H-indeno[1,2-d][1,3]thiazol-2-yl-1H-indole-2-carbohydrazide], the inhibition at 10 µM in the data set with N2a/K18ΔK280 cells turned out to be 53.2%. This compound registered an IC50 against tau construct K19 of 49.4 µM. Besides, at tau construct K19 (setting [1]), the DC50 amounted to 89.1 µM. Also, the LDH with uninduced N2A cells was −9.6%.

Take `O=C(NNc1nc(-c2ccc(Cl)cc2)cs1)C1CCCCC1` [Comp. 68, N′-[4-(4-chlorophenyl)-1,3-thiazol-2-yl]cyclohexanecarbohydrazide]: the inhibition at 10 µM in the data set on N2a/K18ΔK280 cells (setting [2]) worked out at 46.4%. Also, on tau construct K19 (setting [3]), the DC50 was found to be 162 µM. For the same compound, at tau construct K19 (setting [4]), the IC50 came to 69.1 µM. Further, in the data set with uninduced N2A cells, the LDH was −2.8%.

In the case of `COc1cc(-c2csc(NNC(=O)c3ccc(C(F)(F)F)cc3)n2)cc(OC)c1O` [Comp. 51, N′-[4-(4-hydroxy-3,5-dimethoxyphenyl)-1,3-thiazol-2-yl]-4-(trifluoromethyl)benzohydrazide], in the data set on N2a/K18ΔK280 cells (setting [2]), the inhibition at 10 µM was found to be 42.6%. Besides, at tau construct K19 (setting [3]), the DC50 was above 200 µM. Also, the IC50 on tau construct K19 (setting [4]) was found to be 189 µM. For the same compound, the LDH with uninduced N2A cells was −10.4%.

Consider `O=C(NNc1nc(-c2ccc([N+](=O)[O-])cc2)cs1)c1ccc2c(c1)OCO2` [Comp. 13, N′-[4-(4-nitrophenyl)-1,3-thiazol-2-yl]-1,3-benzodioxole-5-carbohydrazide], for which the inhibition at 10 µM with N2a/K18ΔK280 cells came out at 66.1%. In addition, the DC50 on tau construct K19 (setting [3]) was found to be 0.7 µM. Moreover, on tau construct K19 (setting [4]), the IC50 worked out at 3.9 µM. For the same compound, the LDH in the data set on uninduced N2A cells worked out at 9.3%.

For `COc1ccc(-c2csc(NNC(=O)N3CCCCC3)n2)cc1` [Comp. 49, N′-[4-(4-methoxyphenyl)-1,3-thiazol-2-yl]piperidine-1-carbohydrazide], in the data set on N2a/K18ΔK280 cells (N2a/K18ΔK280 cells, 5 days), the “Inhibition in cells (result in words: cytotoxicity)” value is reported as “Cytotoxic at 5 d”. Moreover, the DC50 on tau construct K19 (setting [3]) is above 200 µM. Besides, on tau construct K19 (setting [4]), the IC50 was above 200 µM. In addition, in the data set on uninduced N2A cells, the LDH is −3.9%.

Consider `O=C(NNc1nc(-c2ccc3ccccc3c2)cs1)c1cc2ccccc2[nH]1` [Comp. 59, N′-[4-(2-naphthyl)-1,3-thiazol-2-yl]-1H-indole-2-carbohydrazide], for which the “Inhibition in cells (result in words: cytotoxicity)” value in the data set with N2a/K18ΔK280 cells (N2a/K18ΔK280 cells, 5 days) is on record as “Cytotoxic at 5 d”. Also, the IC50 on tau construct K19 turned out to be 130 µM. In addition, at tau construct K19 (setting [1]), the DC50 amounted to 138 µM. In addition, the LDH with uninduced N2A cells is on record as 1.9%.
